Measured values from US20260306644A1, “ANTIBODY RECRUITING MOLECULES FOR THE TREATMENT OF CORONAVIRUS DISEASE-19” (priority 2023, published 2026).
“And” between values parts separate entries of the source, which are not always exact repeats. Identical values can stand only once. Like-named read-outs stand apart in the source and are kept apart here. Positions of bridges follow the written chain, without caps; N, C: chain ends. Non-standard residues stand in square brackets, D forms with d. Residues, ends and D or L forms follow the SMILES beside them. No end group written: not given here. *: point of attachment. X1 = O=C(CCCC[C@@H]1SC[C@@H]2NC(=O)N[C@@H]21)NCCOCCOCCOCCOCCN*; Biotin = O=C1N[C@H]2[C@H](CS[C@H]2CCCCC(=O)*)N1; PEG4 = NCCOCCOCCOCCOCCC(=O)O; hCys = N[C@@H](CCS)C(=O)O; Nle = CCCC[C@H](N)C(=O)O; Aib = CC(C)(N)C(=O)O

Assays:
[1] = system: live SARS-CoV-2 Virus (wildtype); assay: Neutralization of live SARS-CoV-2 virus, wildtype (Vero E6 cells, nucleoprotein ELISA); format: cell-based
[2] = system: Spike RBD coated magnetic beads / RAW 264.7 macrophages; assay: Antibody-dependent cellular phagocytosis (ADCP), RAW 264.7 macrophages and Spike RBD coated magnetic beads, flow cytometry; format: cell-based; settings: 37° C., 2 hours, read-out: SARS-COV-2 ADCP EC50
Experimental: The ability of the compounds to mediate antibody-dependent cellular phagocytosis (ADCP) was assessed using RAW 264.7 macrophages and Spike RBD coated magnetic beads (https://www.acrobiosystems.com/P3194-SARS-CoV-2-Spike-RBD-coupled-Magnetic-Beads.html). Spike RBD coated magnetic beads (3 ul per well) were added to each well of a round bottom 96-well plates. RAW264.7 cells (50,000 cells per well) were added to the beads. Next, the compounds were administered to predetermined final concentrations. The cell-bead mixtures were incubated at 37° C. for 2 hours. The mixtures were then analyzed by flow cytometry.

SARS-CoV-2 Spike protein = SARS-CoV-2 Spike protein (Severe acute respiratory syndrome coronavirus 2, UniProt P0DTC2); assay: Ternary binding of SARS-CoV-2 Spike protein (293T cells expressing Spike-GFP, IgG-AF647, flow cytometry); format: cell-based; settings: 293T cells expressing Spike-GFP; IgG-AF647 10 μg/ml; repeat values/batches listed separately; read-out: SARS-CoV-2 Ternary binding EC50
[3] = target: T1, SARS-CoV-2 Spike Glycoprotein RBD protein (Severe acute respiratory syndrome coronavirus 2, UniProt P0DTC2); assay: Binding of biotinylated ligands to SARS-CoV-2 Spike Glycoprotein RBD protein by ELISA; settings: ELISA; biotinylated ligands; Spike RBD; read-out: ELISA SARS-CoV-2 Spike RBD Protein Binding EC50
T1 construct: SARS-CoV-2 (COVID-19) S Protein RBD, His Tag; purchased Acro Biosystems SPD-C52H3
Experimental: Materials. The binding affinity of biotinylated ligands to SARS-CoV-2 Spike Glycoprotein RBD protein was determined by ELISA. The binding assay was performed using the following steps: (1) assay plates (PE B&W Isoplate 96-well Flat Bottom, High Bindi-g - Perkin Elmer 6005580) were coated with 100 ul Anti-6× His tag antibody (Anti-6× His tag Antibody; Abcam ab15149, Mouse Monoclonal; Cambridge, UK) at 5 μg/ml in PBS, incubate 1 hour at 37° C. without shaking. The plates were washed (each wash step of this assay includes four 1-minute washes with 200 ul phosphate-buffered saline-0.05% (w/v) Tween® 20 detergent (PBST)). (2) Plates were blocked with 200 ul PBST-5% BSA (PBSTB; American Bio AB01088-00100; Canton, MA), for an hour at room temperature on a plate shaker (400 rpm). The plates were washed. […] The plates were washed. (4) Ligands were added, 100 ul at a concentration range of 0.1 mM to 100 nM in PBSTB, and incubated for 1 hour at room temperature on a plate shaker (200 RPM). The plates were washed. (5) NeutrAvidin™-HRP (Invitrogen 31030; Waltham, MA) is added, 100 ul at a dilution of 1:20,000 in PBSTB, and incubated for 1 hour at room temperature on a plate shaker (200 RPM). The plates were washed. (6) SuperSignal ELISA Pico Chemiluminescent Substrate (Thermo Scientific 37069; Waltham, MA) was added and incubated for 5 minutes at room temperature on a plate shaker (200 RPM).

[4] = target: T2, SARS-CoV-2 Spike A (wild-type) (Severe acute respiratory syndrome coronavirus 2, UniProt P0DTC2); assay: MSD ACE2 competition assay (inhibition of Spike binding with ACE2, ECL), A (wild-type); settings: IC50 Wild Type, Wild Type Spike
T2 construct: purchased Meso Scale Diagnostics, LLC V-PLEX SARS-CoV-2 Panel 13 (ACE2) Kit / Panel 23 (ACE2) Kit

[5] = live virus neutralization, isolate Seattle WA (IITRI), Vero E6

Row | Compound | EC50 ([1]; read-out: Seattle WA (IITRI) EC50) | EC50 [2] | EC50 (SARS-CoV-2 Spike protein) | EC50 [3] | EC50 [1, 5] | IC50 [4]
1 | CC[C@H](C)[C@H](NC(=O)[C@H](CC(C)C)NC(=O)[C@H](CC(=O)O)NC(=O)[C@H](CO)NC(=O)[C@@H](NC(=O)[C@H](CCCNC(=N)N)NC(=O)[C@H](CCSC)NC(=O)[C@H](CO)NC(=O)[C@H](C)NC(=O)[C@H](CCC(=O)O)NC(=O)[C@H](C)NC(=O)[C@H](Cc1c[nH]cn1)NC(=O)CNC(=O)[C@H](CC(C)C)NC(=O)[C@H](CCC(=O)O)NC(=O)[C@H](CC(=O)O)NC(=O)[C@H](CC(C)C)NC(=O)[C@H](CC(C)C)NC(=O)[C@H](CCCNC(=N)N)NC(=O)[C@H](CCSC)NC(=O)[C@@H](NC(=O)[C@H](CCC(=O)O)NC(=O)[C@H](Cc1ccc(O)cc1)NC(=O)[C@@H](NC(=O)[C@H](CCCCN)NC(=O)[C@H](CCC(N)=O)NC(=O)[C@H](CC(C)C)NC(=O)[C@@H](NC(=O)[C@H](Cc1c[nH]c2ccccc12)NC(=O)[C@H](CCC(=O)O)NC(=O)[C@H](CCCCN)NC(=O)[C@H](CC(=O)O)NC(=O)CCOCCOCCOCCOCCOCCOCCOCCOCCNC(=O)CCOCCOCCOCCOCCOCCOCCOCCOCCC(=O)N[C@@H](CC(=O)O)C(=O)N[C@H]1CSSC[C@@H](C(=O)N[C@H](C(N)=O)[C@@H](C)O)NC(=O)[C@H](Cc2c[nH]c3ccccc23)NC(=O)[C@H](C(C)C)NC(=O)[C@H](CC(C)C)NC(=O)[C@H](CCC(=O)O)NC(=O)CNC(=O)[C@H](CC(C)C)NC(=O)[C@H](Cc2c[nH]cn2)NC(=O)[C@H](Cc2c[nH]c3ccccc23)NC(=O)[C@H](C)NC1=O)[C@@H](C)CC)[C@@H](C)CC)[C@@H](C)CC)C(C)C)C(=O)N[C@@H](Cc1ccc(O)cc1)C(=O)N[C@@H](CCC(=O)O)C(=O)N[C@@H](Cc1ccccc1)C(=O)N[C@@H](CCSC)C(=O)N[C@@H](CCCCN)C(=O)N[C@@H](CCCCN)C(=O)NCC(=O)N[C@@H](CC(=O)O)C(=O)N[C@@H](CCC(=O)O)C(=O)N[C@@H](CCCNC(=N)N)C(=O)N[C@@H](CC(C)C)C(=O)N[C@@H](CC(C)C)C(=O)N[C@@H](CCC(=O)O)C(=O)N[C@@H](CCC(=O)O)C(=O)N[C@@H](C)C(=O)N[C@@H](CCC(=O)O)C(=O)N[C@@H](CCCNC(=N)N)C(=O)N[C@@H](CC(C)C)C(=O)N[C@@H](CC(C)C)C(=O)N[C@@H](CCC(=O)O)C(=O)N[C@@H](CCC(=O)O)C(=O)N[C@H](C(=O)N[C@@H](CCC(=O)O)C(=O)N[C@@H](CCCNC(=N)N)C(N)=O)C(C)C [Compound 128] | 0.042 nM | 0.045 nM and 0.052 nM |  |  |  | 
2 | CC[C@H](C)[C@H](NC(=O)[C@H](CC(C)C)NC(=O)[C@H](CC(=O)O)NC(=O)[C@H](CO)NC(=O)[C@@H](NC(=O)[C@H](CCCNC(=N)N)NC(=O)[C@H](CCSC)NC(=O)[C@H](CO)NC(=O)[C@H](C)NC(=O)[C@H](CCC(=O)O)NC(=O)[C@H](C)NC(=O)[C@H](Cc1c[nH]cn1)NC(=O)CNC(=O)[C@H](CC(C)C)NC(=O)[C@H](CCC(=O)O)NC(=O)[C@H](CC(=O)O)NC(=O)[C@H](CC(C)C)NC(=O)[C@H](CC(C)C)NC(=O)[C@H](CCCNC(=N)N)NC(=O)[C@H](CCSC)NC(=O)[C@@H](NC(=O)[C@H](CCC(=O)O)NC(=O)[C@H](Cc1ccc(O)cc1)NC(=O)[C@@H](NC(=O)[C@H](CCCCN)NC(=O)[C@H](CCC(N)=O)NC(=O)[C@H](CC(C)C)NC(=O)[C@@H](NC(=O)[C@H](Cc1c[nH]c2ccccc12)NC(=O)[C@H](CCC(=O)O)NC(=O)[C@H](CCCCN)NC(=O)[C@H](CC(=O)O)NC(=O)[C@H](CO)NC(=O)C(C)(C)NC(=O)CCOCCOCCOCCOCCNC(=O)CCCC[C@@H]1SC[C@@H]2NC(=O)N[C@@H]21)[C@@H](C)CC)[C@@H](C)CC)[C@@H](C)CC)C(C)C)C(=O)N[C@@H](Cc1ccc(O)cc1)C(=O)N[C@@H](CCC(=O)O)C(=O)N[C@@H](Cc1ccccc1)C(=O)N[C@@H](CCSC)C(=O)N[C@@H](CCCCN)C(=O)N[C@@H](CCCCN)C(=O)N[C@H](Cc1ccccc1)C(=O)O [Compound 216] |  |  | 0.46 nM | 1.11 nM |  | 
3 | CCCC[C@H](NC(=O)[C@H](CCC(=O)O)NC(=O)[C@H](CC(=O)O)NC(=O)[C@H](CC(C)C)NC(=O)[C@H](CC(C)C)NC(=O)[C@H](CCCNC(=N)N)NC(=O)[C@H](CCSC)NC(=O)[C@@H](NC(=O)[C@H](CCC(=O)O)NC(=O)[C@H](Cc1ccc(O)cc1)NC(=O)[C@@H](NC(=O)[C@H](CCCCN)NC(=O)[C@H](CCC(N)=O)NC(=O)[C@H](CC(C)C)NC(=O)[C@@H](NC(=O)[C@H](Cc1c[nH]c2ccccc12)NC(=O)[C@H](CCC(=O)O)NC(=O)[C@H](CCCCN)NC(=O)[C@H](CC(=O)O)NC(=O)CCOCCOCCOCCOCCNC(=O)CCCC[C@@H]1SC[C@@H]2NC(=O)N[C@@H]21)[C@@H](C)CC)[C@@H](C)CC)[C@@H](C)CC)C(=O)N[C@H](Cc1c[nH]cn1)C(=O)N[C@@H](Cc1c[nH]cn1)C(=O)N[C@@H](C)C(=O)N[C@@H](CCC(=O)O)C(=O)N[C@@H](C)C(=O)N[C@@H](CO)C(=O)N[C@@H](CCSC)C(=O)N[C@@H](CCCNC(=N)N)C(=O)N[C@H](C(=O)N[C@@H](CO)C(=O)N[C@@H](CC(=O)O)C(=O)N[C@@H](CC(C)C)C(=O)N[C@H](C(=O)N[C@@H](Cc1ccc(O)cc1)C(=O)N[C@@H](CCC(=O)O)C(=O)N[C@@H](Cc1ccccc1)C(=O)N[C@@H](CCSC)C(=O)N[C@@H](CCCCN)C(=O)N[C@@H](CCCCN)C(=O)NCC(=O)O)[C@@H](C)CC)C(C)C [Compound 222] |  |  | 0.02 nM | 0.79 nM |  | 
4 | CC[C@H](C)[C@@H]1NC(=O)[C@H](Cc2c[nH]c3ccccc23)NC(=O)[C@H](CCC(=O)O)NC(=O)CSCC[C@@H](C(=O)NCCOCCOCCOCCOCCNC(=O)CCCC[C@@H]2SC[C@@H]3NC(=O)N[C@@H]32)NC(=O)[C@H](CCCCN)NC(=O)[C@H](CCCCN)NC(=O)[C@H](CCSC)NC(=O)[C@H](Cc2ccccc2)NC(=O)[C@H](CCC(=O)O)NC(=O)[C@H](Cc2ccc(O)cc2)NC(=O)[C@H]([C@@H](C)CC)NC(=O)[C@H](CC(C)C)NC(=O)[C@H](CC(=O)O)NC(=O)[C@H](CO)NC(=O)[C@H](C(C)C)NC(=O)[C@H](CCCNC(=N)N)NC(=O)[C@H](CCSC)NC(=O)[C@H](CO)NC(=O)[C@H](C)NC(=O)[C@H](CCC(=O)O)NC(=O)[C@H](C)NC(=O)[C@H](Cc2c[nH]cn2)NC(=O)CNC(=O)[C@H](CC(C)C)NC(=O)[C@H](CCC(=O)O)NC(=O)[C@H](CC(=O)O)NC(=O)[C@H](CC(C)C)NC(=O)[C@H](CC(C)C)NC(=O)[C@H](CCCNC(=N)N)NC(=O)[C@H](CCSC)NC(=O)[C@H]([C@@H](C)CC)NC(=O)[C@H](CCC(=O)O)NC(=O)[C@H](Cc2ccc(O)cc2)NC(=O)[C@H]([C@@H](C)CC)NC(=O)[C@H](CCCCN)NC(=O)[C@H](CCC(N)=O)NC(=O)[C@H](CC(C)C)NC1=O [Compound 251] ({CH2CO}-EWILQKIYEIMRLLDELGHAEASMRVSDLIYEFMKK[hCys]-X1; thioether N-37) |  |  | 0.08 nM | 0.92 nM |  | 
5 | Ac-DCAWHLGELVWCTDKEWILQKIYEIMRLLDELGHAEASMRVSDLIYEFMKKGDERLLEEAERLLEEVER (disulfide 2-12) [Compound 120] |  | 1.9 nM and 1.8 nM | 0.33 nM and 0.31 nM |  | 0.001 nM | < 10 nM and 1.57 nM
6 | Ac-DKEWILQKIYEIMRLLDELGHAEASMRVSDLIYEFMKKGDERLLEEAERLLEEVERDCAWHLGELVWCT (disulfide 58-68) [Compound 110] |  | 1.5 nM and 1.2 nM | 0.14 nM and 0.13 nM |  | 0.0058 nM | < 10 nM
7 | DKEWILQKIYEIMRLLDELGHAEASMRVSDLIYEFMKKGDERLLEEAERLLEEVERDCAWHLGELVWCT (disulfide 58-68) [Compound 111] |  |  |  |  | 0.14 nM | 1.39 nM
8 | {Biotin-PEG4}-[Aib]SDKEWILQKIYEIMRLLDELGHAEAS[Nle]RVSDLIY[Aib]FMK[Aib]G [Compound 218] |  |  | 0.1 nM | 2.38 nM |  | 
